What all share (assay): DTP human tumour cell line panel, 48 h
Experiment [1] concerns SK-MEL-28 melanoma.
Experiment [2] deals with T-47D breast.
Experiment [3] has as its system OVCAR-8 ovarian.
The test system of experiment [4] is 786-0 renal.
For experiment [5], the system named is NCI-H23 lung.
For experiment [6], the system named is CCRF-CEM leukemia.
Experiment [7] concerns SNB-19 CNS.
For experiment [8], the system named is OVCAR-3 ovarian.
For experiment [9], the system named is OVCAR-5 ovarian.
For experiment [10], the system named is M14 melanoma.
Experiment [11] concerns HCT-15 colon.
Experiment [12] has as its system NCI-H522 lung.
Experiment [13] concerns SF-268 CNS.
For experiment [14], the system named is SK-OV-3 ovarian.
Experiment [15] deals with KM12 colon.
Experiment [16] has as its system ACHN renal.
Experiment [17] deals with SK-MEL-5 melanoma.
The subject of experiment [18] is SF-539 CNS.
In experiment [19] the test system is HOP-92 NSCLC.

These results are taken from PubChem BioAssay (NCI).

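1) Cells in 96-well plates. 2) Compound, 48 h, 5 concentrations. 3) Linear interpolation between surrounding doses. 4) Unreached endpoint = highest concentration. TGI: concentration producing complete growth inhibition.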

For `Cn1c(=O)c2[nH]c(/N=N\n3ccc4ccccc43)nc2n(C)c1=O`, the TGI in experiment [1], in experiment [2], in [3], in experiment [4], in [5] and in [6] was above 100 µM in each case. For the same compound, the TGI in experiment [7], in experiment [8], in experiment [9], in experiment [10], in [11] and in [12] was above 100 µM in each case. Also, the total growth inhibition concentration (TGI) in [13], in experiment [14], in experiment [15], in experiment [16], in [17] and in experiment [18] was above 100 µM in each case.

For `CC(=O)OC[C@@]12CC[C@H]3C(C)(C)CCC[C@]3(C)[C@H]1C[C@@H](C1=CC(=O)O[C@H]1O)O2`, the TGI (usually the concentration at which net growth stops) in experiment [1] stood at 4.36 µM; in experiment [2], 8.67 µM; in experiment [3], 13.7 µM; in experiment [4], 3.32 µM; in [5], 5.01 µM; in experiment [6], 3.62 µM. The TGI in experiment [7] came out at 37.2 µM; in [8] it was 3.99 µM; in experiment [9], 37.8 µM; in [10], 7.65 µM; in experiment [11] it was 5.15 µM; in experiment [12], 8.03 µM. The TGI in experiment [13] was 28.1 µM; in experiment [15] it was 35.8 µM; in experiment [16], 5.12 µM; in experiment [17] it was 9.08 µM; in [18], 5.28 µM.

For `CNC(=S)NNC(=O)c1c(C)nc2sccn12`, the TGI in experiment [1], in [3], in [4], in experiment [5], in [6] and in experiment [7] was above 100 µM in each case. The TGI in [8], in experiment [9], in experiment [11], in experiment [12], in experiment [13] and in experiment [14] was above 100 µM throughout. Further, the TGI in [15], in experiment [19], in [16], in [17] and in experiment [18] was above 100 µM throughout.

Regarding `COc1cccc(N=N/C(=N/NC(=O)c2cc(Cl)ccc2O)c2ccc(N(CCC#N)CCC#N)cc2C)c1`, the TGI in [2] is 58.4 µM; in experiment [3], 55.3 µM; in experiment [4], above 100 µM; in [5] it was above 100 µM; in experiment [6], above 100 µM; in experiment [7], above 100 µM. The TGI in experiment [8] was 6.48 µM; in experiment [9], above 100 µM; in experiment [10], above 100 µM; in experiment [11], above 100 µM; in experiment [12], 31.9 µM; in [13] it was above 100 µM. Moreover, the total growth inhibition concentration (TGI) in [14], in experiment [15], in experiment [16], in experiment [17] and in [18] was above 100 µM each time.

As to `NS(=O)(=O)c1cc(S(N)(=O)=O)c(NC(=O)Nc2ccc(Cl)c(Cl)c2)c(Cl)c1Cl`, the TGI in experiment [1], in experiment [3], in experiment [4], in experiment [5], in [7] and in experiment [8] was above 100 µM in each case. Also, the TGI in [9], in experiment [10], in experiment [11], in experiment [12], in [13] and in experiment [14] was above 100 µM throughout. Besides, the TGI in experiment [15], in [19], in experiment [16] and in [17] was above 100 µM each time.

Turning to `O=C(CN1CCOCC1)c1ccc2[nH]c(=O)oc2c1`, the TGI in experiment [1], in experiment [3], in experiment [4], in experiment [5], in experiment [6] and in experiment [7] was above 100 µM throughout. Also, the TGI in experiment [8], in [9], in experiment [10], in experiment [11], in experiment [13] and in experiment [14] was above 100 µM throughout. For the same compound, the TGI in experiment [15], in experiment [16], in experiment [17] and in experiment [18] was above 100 µM each time.

As to `CCOC(=O)CC/C(C)=N\n1c(Cc2ccc(Cl)cc2)n[nH]c1=O`, the TGI in experiment [1], in [2], in [3], in [4], in [5] and in [7] was above 100 µM throughout. Also, the TGI in experiment [8] was above 100 µM; in [9], 55.5 µM; in [10], above 100 µM; in experiment [11], above 100 µM; in experiment [12], above 100 µM; in experiment [13], above 100 µM. The TGI in experiment [15], in experiment [16], in experiment [17] and in [18] was above 100 µM each time.

In the case of `COC1=C(C)C(=O)C2C(C1=O)C(c1ccc(OC)c(OC)c1)[C@H]2C` (some centres not stated), the TGI in [1], in experiment [3], in experiment [4], in [5], in [6] and in [7] was above 100 µM in each case. In addition, the TGI in experiment [8], in experiment [9], in experiment [10], in experiment [11], in experiment [12] and in [13] was above 100 µM throughout. The TGI in experiment [14], in experiment [15], in experiment [19], in experiment [16], in experiment [17] and in experiment [18] was above 100 µM throughout.

As to `Cc1ccc2c(=O)c(-c3nnsn3)c[nH]c2n1`, the TGI in [1], in experiment [2], in [3], in experiment [4], in experiment [5] and in experiment [6] was above 100 µM throughout. Moreover, the TGI in [7], in experiment [8], in experiment [9], in [10], in experiment [11] and in experiment [12] was above 100 µM in each case. Moreover, the concentration for total growth inhibition (TGI) in [13], in experiment [15], in [16] and in [17] was above 100 µM in each case.

On to `CSc1sc(C)cc1-c1nsc(=O)o1`, for which the TGI in experiment [1], in experiment [4], in experiment [5], in experiment [6], in experiment [7] and in [9] was above 100 µM in each case. Moreover, the TGI in experiment [10], in experiment [11], in experiment [12], in [13], in [15] and in [19] was above 100 µM each time. Further, the total growth inhibition concentration (TGI) in [16] and in experiment [17] was above 100 µM throughout.

On to `N#Cc1cc2c(n(C3OC(CO)C(O)C(O)C3O)c1=S)CCCCC2` (configuration not stated), for which the TGI in experiment [1], in experiment [3], in [4], in experiment [5], in experiment [6] and in experiment [7] was above 100 µM in each case. Further, the TGI in experiment [8], in [9], in experiment [10], in experiment [11], in experiment [12] and in experiment [13] was above 100 µM in each case. The TGI in experiment [15], in experiment [19], in experiment [16], in [17] and in experiment [18] was above 100 µM in each case.

As for `Cc1cc(C)nc(NC(=S)Nc2cccc(Cl)c2)c1`, the concentration for total growth inhibition (TGI) in experiment [1], in experiment [2], in [3], in experiment [4], in experiment [5] and in experiment [6] was above 100 µM throughout. Also, the TGI in experiment [7], in experiment [8], in [9], in experiment [10], in experiment [11] and in experiment [13] was above 100 µM in each case. Besides, the TGI in [14], in [15], in experiment [16] and in experiment [18] was above 100 µM each time.

On to `Nc1cc(OCc2ccccc2)c(OCc2ccccc2)cc1C=O`, for which the TGI in experiment [1] is above 100 µM; in experiment [2], above 100 µM; in experiment [3], above 100 µM; in [4] it was 55.4 µM; in [6], above 100 µM; in experiment [7] it was above 100 µM. Besides, the TGI in experiment [9] is above 100 µM; in [11] it was above 100 µM; in [12], 24.5 µM; in experiment [13], above 100 µM; in experiment [14], above 100 µM; in experiment [15] it was 92.2 µM. The total growth inhibition concentration (TGI) in experiment [16] is 93.5 µM; in [17], 93.1 µM; in [18], 31.7 µM.

In the case of `CC1=NN(c2cccc(Cl)c2)C(=N/c2nc3ccccc3s2)/C1=C\C=C\c1ccccc1`, the TGI in [1], in experiment [2], in [3], in experiment [4], in experiment [5] and in experiment [6] was above 100 µM each time. In addition, the TGI in experiment [8] was 78.9 µM; in [9], above 100 µM; in [10], above 100 µM; in [11] it was above 100 µM; in experiment [12], 92.3 µM; in experiment [13], above 100 µM. The TGI was above 100 µM in [14]; above 100 µM in experiment [15]; 88.2 µM in [16]; 59.2 µM in experiment [17]; above 100 µM in experiment [18].

As to `CSc1nc(C)cc(N(C)c2ccccc2)n1`, the TGI in experiment [1] is above 100 µM; in [3] it was 93 µM; in [4], above 100 µM; in experiment [5], 95.3 µM; in [6] it was above 100 µM; in experiment [7], above 100 µM. Further, the TGI in experiment [8] is 97.3 µM; in experiment [9], above 100 µM; in experiment [10] it was above 100 µM; in experiment [11], above 100 µM; in experiment [12] it was above 100 µM; in [13], above 100 µM. The concentration for total growth inhibition (TGI) in experiment [14] was above 100 µM; in experiment [15], 20 µM; in [16], above 100 µM; in experiment [17], 56.2 µM; in [18] it was 66 µM.

With `Nn1c(-c2ccccc2Nc2ccccc2-c2n[nH]c(=S)n2N)n[nH]c1=S`, the TGI in experiment [1], in [3], in experiment [4], in experiment [5], in [6] and in [7] was above 50 µM throughout. For the same compound, the TGI in experiment [8], in experiment [9], in experiment [10], in experiment [11], in [12] and in [13] was above 50 µM each time. Moreover, the concentration for total growth inhibition (TGI) in experiment [15], in experiment [19], in experiment [16], in experiment [17] and in [18] was above 50 µM in each case.

Regarding `CCC(C)[C@H]1C(=O)N=C(N)N1C(=O)OCc1ccccc1` (some centres not stated), the concentration for total growth inhibition (TGI) in experiment [1], in [3], in experiment [4], in experiment [5], in experiment [7] and in [8] was above 100 µM each time. Moreover, the TGI in experiment [9], in [11], in experiment [12], in experiment [13], in experiment [15] and in experiment [16] was above 100 µM throughout. In experiment [17], the TGI is above 100 µM.
